From ChEMBL document CHEMBL3763120, “Phenyl Benzenesulfonylhydrazides Exhibit Selective Indoleamine 2,3-Dioxygenase Inhibition with Potent in Vivo Pharmacodynamic Activity and Antitumor Efficacy” (J Med Chem, 2016)

Tests used:
[1] = molecular target: T1, Glutamate [NMDA] receptor (Homo sapiens) (UniProt Q05586+Q12879+Q13224+O15399+O60391+Q14957+Q8TCU5); assay: Inhibition of NMDA receptor glycine binding site (unknown origin) at 10 uM
[2] = molecular target: L-type calcium channel, dihydropyridine binding site (Homo sapiens, UniProt O60840+Q01668+Q13698+Q13936); assay: Inhibition of L-type calcium channel dihydropyridine binding site (unknown origin) at 10 uM; assay type: protein assay
Homo sapiens [3] = species on record: Homo sapiens; assay: Inhibition of potassium channel (unknown origin) at 10 uM
CT26 [4] = assay: Antitumor activity against mouse CT26 cells xenografted in Balb/c mouse assessed as median time to end point at 100 mg/kg, po bid for 22 days; assay type: functional
Homo sapiens [5] = species on record: Homo sapiens; assay: Inhibition of Purinergic P2X receptor (unknown origin) at 10 uM
[6] = molecular target: Kappa-type opioid receptor (Homo sapiens) (UniProt P41145); assay: Inhibition of Opiate kappa receptor (unknown origin) at 10 uM
Kappa-type opioid receptor (Homo sapiens), sequence (P41145 whole entry): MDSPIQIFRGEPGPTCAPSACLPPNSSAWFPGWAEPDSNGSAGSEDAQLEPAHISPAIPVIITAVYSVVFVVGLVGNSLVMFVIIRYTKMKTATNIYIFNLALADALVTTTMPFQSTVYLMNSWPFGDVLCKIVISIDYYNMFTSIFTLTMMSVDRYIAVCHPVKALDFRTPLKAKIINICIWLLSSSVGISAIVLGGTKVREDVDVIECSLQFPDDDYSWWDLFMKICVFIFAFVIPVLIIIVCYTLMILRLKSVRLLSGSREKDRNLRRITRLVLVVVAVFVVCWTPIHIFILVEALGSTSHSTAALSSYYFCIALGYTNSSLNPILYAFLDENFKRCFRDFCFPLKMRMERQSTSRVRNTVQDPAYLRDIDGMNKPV

[7] = molecular target: Gamma-aminobutyric acid type B receptor subunit 1 (Homo sapiens) (UniProt Q9UBS5); assay: Inhibition of GABAB1A receptor (unknown origin) at 10 uM
[8] = molecular target: Androgen receptor (Homo sapiens) (UniProt P10275); assay: Inhibition of Androgen receptor (unknown origin) at 10 uM
Homo sapiens [9] = species on record: Homo sapiens; assay: Inhibition of Sodium channel site 2 (unknown origin) at 10 uM
[10] = Tmax in Sprague-Dawley rat plasma at 10 mg/kg, po by LC-MS/MS analysis; assay type: ADME, organism-based
[11] = molecular target: Histamine H2 receptor (Homo sapiens) (UniProt P25021); assay: Inhibition of Histamine H2 receptor (unknown origin) at 10 uM
Histamine H2 receptor (Homo sapiens), sequence (P25021 whole entry): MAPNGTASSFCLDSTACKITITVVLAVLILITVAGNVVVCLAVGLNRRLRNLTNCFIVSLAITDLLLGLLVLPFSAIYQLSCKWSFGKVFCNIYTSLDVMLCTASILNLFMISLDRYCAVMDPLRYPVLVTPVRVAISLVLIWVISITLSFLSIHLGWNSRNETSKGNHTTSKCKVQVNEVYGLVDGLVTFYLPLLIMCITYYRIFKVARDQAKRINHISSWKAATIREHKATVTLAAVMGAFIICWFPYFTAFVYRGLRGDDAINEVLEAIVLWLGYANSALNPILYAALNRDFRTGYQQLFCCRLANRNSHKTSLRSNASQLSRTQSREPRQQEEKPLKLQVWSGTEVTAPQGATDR

[12] = molecular target: Muscarinic acetylcholine receptor M2 (Homo sapiens) (UniProt P08172); assay: Inhibition of Muscarinic M2 receptor (unknown origin) at 10 uM
[13] = AUC (0 to infinity) in Sprague-Dawley rat plasma at 2 mg/kg, iv by LC-MS/MS analysis; assay type: ADME, organism-based; set-up: dose 2 mg/kg, route intravenous, time infinity
Homo sapiens [14] = species on record: Homo sapiens; assay: Inhibition of D4.2 receptor (unknown origin) at 10 uM
[15] = molecular target: Adenosine receptor A2a (Homo sapiens) (UniProt P29274); assay: Inhibition of Adenosine A2A receptor (unknown origin) at 10 uM
[16] = molecular target: Cysteinyl leukotriene receptor 1 (Homo sapiens) (UniProt Q9Y271); assay: Inhibition of CysLT1 receptor (unknown origin) at 10 uM
[17] = molecular target: Interleukin-1 receptor type 1 (Homo sapiens) (UniProt P14778); assay: Inhibition of IL-1 receptor (unknown origin) at 10 uM
[18] = molecular target: Cannabinoid receptor 1 (Homo sapiens) (UniProt P21554); assay: Inhibition of CB1 receptor (unknown origin) at 10 uM
[19] = molecular target: Acetylcholine receptor subunit alpha (Homo sapiens) (UniProt P02708); assay: Inhibition of Nicotinic acetylcholine alpha1 bungarotoxin binding site (unknown origin) at 10 uM
[20] = Oral bioavailability in Sprague-Dawley rat plasma at 10 mg/kg by LC-MS/MS analysis; assay type: ADME, organism-based
[21] = molecular target: 5-hydroxytryptamine receptor 2B (Homo sapiens) (UniProt P41595); assay: Inhibition of 5-HT2B receptor (unknown origin) at 10 uM
5-hydroxytryptamine receptor 2B (Homo sapiens), sequence (P41595 whole entry): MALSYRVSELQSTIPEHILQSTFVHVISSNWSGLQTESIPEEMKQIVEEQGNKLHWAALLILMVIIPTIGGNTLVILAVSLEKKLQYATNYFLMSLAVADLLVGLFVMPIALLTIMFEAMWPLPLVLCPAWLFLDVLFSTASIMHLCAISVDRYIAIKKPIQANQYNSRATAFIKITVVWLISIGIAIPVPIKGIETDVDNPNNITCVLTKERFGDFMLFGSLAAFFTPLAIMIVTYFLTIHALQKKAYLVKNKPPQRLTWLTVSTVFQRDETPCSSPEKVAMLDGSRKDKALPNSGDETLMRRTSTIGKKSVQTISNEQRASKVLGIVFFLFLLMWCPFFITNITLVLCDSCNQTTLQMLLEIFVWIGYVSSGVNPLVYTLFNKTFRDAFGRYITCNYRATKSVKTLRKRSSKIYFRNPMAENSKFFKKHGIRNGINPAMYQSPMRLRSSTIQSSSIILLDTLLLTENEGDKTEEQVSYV

CT26 [22] = assay: Antitumor activity against mouse CT26 cells xenografted in Balb/c mouse assessed as tumor growth delay at 100 mg/kg, po bid for 22 days; assay type: functional; details: 528 h, read-out: TGI
CT26 [23] = assay: Antitumor activity against mouse CT26 cells xenografted in Balb/c mouse assessed as median time to end point at 200 mg/kg, po bid for 22 days; assay type: functional
[24] = Half life in Sprague-Dawley rat plasma at 10 mg/kg, po by LC-MS/MS analysis; assay type: ADME, organism-based
Homo sapiens [25] = species on record: Homo sapiens; assay: Inhibition of Glutamate kainate receptor (unknown origin) at 10 uM
[26] = molecular target: B2 bradykinin receptor (Homo sapiens) (UniProt P30411); assay: Inhibition of Bradykinin B2 receptor (unknown origin) at 10 uM
[27] = molecular target: Substance-P receptor (Homo sapiens) (UniProt P25103); assay: Inhibition of Tachykinin NK1 receptor (unknown origin) at 10 uM
Substance-P receptor (Homo sapiens), sequence (P25103 whole entry): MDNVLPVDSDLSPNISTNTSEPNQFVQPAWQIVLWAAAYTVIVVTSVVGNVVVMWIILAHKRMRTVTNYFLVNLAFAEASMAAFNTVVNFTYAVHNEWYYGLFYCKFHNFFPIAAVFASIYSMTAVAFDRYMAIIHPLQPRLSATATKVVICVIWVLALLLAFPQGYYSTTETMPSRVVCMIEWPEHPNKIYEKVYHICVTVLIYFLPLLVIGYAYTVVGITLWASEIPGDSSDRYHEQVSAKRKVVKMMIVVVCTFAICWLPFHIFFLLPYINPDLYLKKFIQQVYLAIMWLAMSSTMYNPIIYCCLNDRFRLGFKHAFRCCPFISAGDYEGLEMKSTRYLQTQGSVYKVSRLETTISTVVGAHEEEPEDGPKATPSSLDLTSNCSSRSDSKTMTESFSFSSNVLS

[28] = molecular target: Muscarinic acetylcholine receptor M3 (Homo sapiens) (UniProt P20309); assay: Inhibition of Muscarinic M3 receptor (unknown origin) at 10 uM
[29] = Half life in Sprague-Dawley rat plasma at 2 mg/kg, iv by LC-MS/MS analysis; assay type: ADME, organism-based; details: Sprague-Dawley, plasma
Homo sapiens [30] = species on record: Homo sapiens; assay: Inhibition of rolipram binding site (unknown origin) at 10 uM
Homo sapiens [31] = species on record: Homo sapiens; assay: Inhibition of MT1 receptor (unknown origin) at 10 uM
[32] = molecular target: Neuropeptide Y receptor type 1 (Homo sapiens) (UniProt P25929); assay: Inhibition of Neuropeptide Y1 receptor (unknown origin) at 10 uM
[33] = molecular target: Alpha-2A adrenergic receptor (Homo sapiens) (UniProt P08913); assay: Inhibition of Adrenergic alpha2A receptor (unknown origin) at 10 uM
Homo sapiens [34] = species on record: Homo sapiens; assay: Inhibition of Nicotinic acetylcholine receptor (unknown origin) at 10 uM
[35] = molecular target: Mu-type opioid receptor (Homo sapiens) (UniProt P35372); assay: Inhibition of Opiate mu receptor (unknown origin) at 10 uM
Homo sapiens [36] = species on record: Homo sapiens; assay: Inhibition of Phorbol ester receptor (unknown origin) at 10 uM
[37] = molecular target: Neuropeptide Y receptor type 2 (Homo sapiens) (UniProt P49146); assay: Inhibition of Neuropeptide Y2 receptor (unknown origin) at 10 uM
Neuropeptide Y receptor type 2 (Homo sapiens), sequence (P49146 whole entry): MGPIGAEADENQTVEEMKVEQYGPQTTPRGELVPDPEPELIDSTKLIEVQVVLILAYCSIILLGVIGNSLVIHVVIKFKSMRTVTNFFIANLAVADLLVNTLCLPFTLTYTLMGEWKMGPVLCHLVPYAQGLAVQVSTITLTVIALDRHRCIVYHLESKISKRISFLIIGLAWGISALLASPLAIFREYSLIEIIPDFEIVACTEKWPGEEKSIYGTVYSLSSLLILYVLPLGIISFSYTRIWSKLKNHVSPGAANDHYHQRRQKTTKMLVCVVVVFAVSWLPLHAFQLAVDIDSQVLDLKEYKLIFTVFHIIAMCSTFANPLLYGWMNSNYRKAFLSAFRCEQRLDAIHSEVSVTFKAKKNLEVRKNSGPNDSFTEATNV

Mus musculus [38] = assay: Decrease in ratio of kynurenine to tryptophan in C57BL/6 mouse at 50 mg/kg, po after 2 hrs by LC-MS/MS analysis; assay type: functional; details: C57BL/6, po
CT26 [39] = assay: Antitumor activity against mouse CT26 cells xenografted in Balb/c mouse assessed as tumor growth delay at 400 mg/kg, po bid for 22 days; assay type: functional; details: 528 h, read-out: TGI
[40] = molecular target: Endothelin receptor type B (Homo sapiens) (UniProt P24530); assay: Inhibition of ETB receptor (unknown origin) at 10 uM
[41] = molecular target: Glucocorticoid receptor (Homo sapiens) (UniProt P04150); assay: Inhibition of Glucocorticoid receptor (unknown origin) at 10 uM
Glucocorticoid receptor (Homo sapiens), sequence (P04150 whole entry): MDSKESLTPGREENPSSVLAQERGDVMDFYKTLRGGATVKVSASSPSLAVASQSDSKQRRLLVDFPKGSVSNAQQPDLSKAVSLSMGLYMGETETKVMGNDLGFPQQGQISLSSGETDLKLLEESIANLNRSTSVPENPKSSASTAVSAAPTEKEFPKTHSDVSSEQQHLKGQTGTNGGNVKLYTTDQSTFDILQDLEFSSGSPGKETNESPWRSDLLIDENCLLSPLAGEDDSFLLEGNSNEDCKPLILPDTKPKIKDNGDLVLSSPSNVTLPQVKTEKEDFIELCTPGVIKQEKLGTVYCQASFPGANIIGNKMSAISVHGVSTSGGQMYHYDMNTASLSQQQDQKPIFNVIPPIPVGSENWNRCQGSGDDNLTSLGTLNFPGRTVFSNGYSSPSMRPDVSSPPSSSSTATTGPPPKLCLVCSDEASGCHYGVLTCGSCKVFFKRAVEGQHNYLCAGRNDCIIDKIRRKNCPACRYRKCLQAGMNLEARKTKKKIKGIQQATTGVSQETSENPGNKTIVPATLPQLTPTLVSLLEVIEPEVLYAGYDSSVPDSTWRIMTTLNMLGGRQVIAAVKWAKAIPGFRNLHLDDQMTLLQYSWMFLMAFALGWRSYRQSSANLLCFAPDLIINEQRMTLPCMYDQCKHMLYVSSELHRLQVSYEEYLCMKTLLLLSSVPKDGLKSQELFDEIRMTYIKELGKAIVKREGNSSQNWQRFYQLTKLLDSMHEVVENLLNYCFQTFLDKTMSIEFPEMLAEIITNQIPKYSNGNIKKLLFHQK

[42] = molecular target: Prostaglandin E2 receptor EP4 subtype (Homo sapiens) (UniProt P35408); assay: Inhibition of Prostaglandin E2 receptor EP4 (unknown origin) at 10 uM
Prostaglandin E2 receptor EP4 subtype (Homo sapiens), sequence (P35408 whole entry): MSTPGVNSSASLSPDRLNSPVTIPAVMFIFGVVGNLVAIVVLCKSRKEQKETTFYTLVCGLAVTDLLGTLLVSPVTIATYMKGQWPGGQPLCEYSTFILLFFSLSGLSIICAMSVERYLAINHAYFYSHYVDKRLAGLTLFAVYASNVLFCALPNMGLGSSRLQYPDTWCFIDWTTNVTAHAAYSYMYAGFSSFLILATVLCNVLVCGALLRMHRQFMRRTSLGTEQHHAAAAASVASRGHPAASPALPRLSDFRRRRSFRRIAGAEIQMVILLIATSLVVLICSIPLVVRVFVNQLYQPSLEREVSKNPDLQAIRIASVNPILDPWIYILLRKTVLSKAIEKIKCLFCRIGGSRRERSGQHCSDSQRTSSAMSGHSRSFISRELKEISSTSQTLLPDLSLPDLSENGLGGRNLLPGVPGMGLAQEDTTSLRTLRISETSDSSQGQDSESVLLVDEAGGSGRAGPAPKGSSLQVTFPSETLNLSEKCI

[43] = molecular target: Epidermal growth factor receptor (Homo sapiens) (UniProt P00533); assay: Inhibition of EGF receptor (unknown origin) at 10 uM
Epidermal growth factor receptor (Homo sapiens), sequence (P00533 whole entry): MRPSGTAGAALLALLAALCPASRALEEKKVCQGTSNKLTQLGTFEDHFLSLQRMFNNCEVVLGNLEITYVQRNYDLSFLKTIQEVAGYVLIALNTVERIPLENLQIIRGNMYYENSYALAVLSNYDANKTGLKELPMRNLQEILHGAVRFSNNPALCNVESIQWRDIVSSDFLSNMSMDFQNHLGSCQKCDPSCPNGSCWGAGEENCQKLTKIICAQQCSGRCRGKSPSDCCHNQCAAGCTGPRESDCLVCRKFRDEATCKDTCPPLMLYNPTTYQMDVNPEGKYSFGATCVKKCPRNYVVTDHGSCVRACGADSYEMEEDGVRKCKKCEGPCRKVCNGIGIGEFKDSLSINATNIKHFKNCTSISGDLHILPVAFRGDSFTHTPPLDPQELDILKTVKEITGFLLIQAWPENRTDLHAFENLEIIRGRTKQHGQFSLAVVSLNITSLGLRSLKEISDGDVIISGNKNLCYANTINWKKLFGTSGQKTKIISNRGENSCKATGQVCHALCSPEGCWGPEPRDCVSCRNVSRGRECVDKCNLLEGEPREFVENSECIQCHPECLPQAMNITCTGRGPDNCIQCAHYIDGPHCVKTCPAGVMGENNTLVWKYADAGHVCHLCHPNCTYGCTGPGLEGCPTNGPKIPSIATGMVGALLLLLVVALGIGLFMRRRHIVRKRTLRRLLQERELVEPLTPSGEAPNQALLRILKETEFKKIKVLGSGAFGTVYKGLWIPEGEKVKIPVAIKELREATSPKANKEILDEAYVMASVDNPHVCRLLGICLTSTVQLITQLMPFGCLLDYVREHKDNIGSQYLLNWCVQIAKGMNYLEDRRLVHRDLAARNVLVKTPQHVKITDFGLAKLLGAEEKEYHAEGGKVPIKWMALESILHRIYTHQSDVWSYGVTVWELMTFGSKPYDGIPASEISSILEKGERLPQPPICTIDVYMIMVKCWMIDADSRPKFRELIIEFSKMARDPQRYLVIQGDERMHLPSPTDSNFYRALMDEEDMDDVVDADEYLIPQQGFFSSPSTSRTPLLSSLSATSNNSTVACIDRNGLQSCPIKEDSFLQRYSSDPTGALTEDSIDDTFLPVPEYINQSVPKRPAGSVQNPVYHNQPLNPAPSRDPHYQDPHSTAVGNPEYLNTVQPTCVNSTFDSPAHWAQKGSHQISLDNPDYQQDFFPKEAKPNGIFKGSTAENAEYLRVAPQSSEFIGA

Mus musculus [44] = assay: Decrease in ratio of kynurenine to tryptophan in Balb/c mouse tumor xenografted with CT26 cells at 100 mg/kg bid for 18 days administered via oral gavage after 2 hrs by LC-MS/MS analysis; assay type: functional
[45] = molecular target: T1, Glutamate [NMDA] receptor (Homo sapiens); assay: Inhibition of NMDA receptor agonist binding site (unknown origin) at 10 uM
[46] = molecular target: Alpha-1B adrenergic receptor (Homo sapiens) (UniProt P35368); assay: Inhibition of Adrenergic alpha1B receptor (unknown origin) at 10 uM
Alpha-1B adrenergic receptor (Homo sapiens), sequence (P35368 whole entry): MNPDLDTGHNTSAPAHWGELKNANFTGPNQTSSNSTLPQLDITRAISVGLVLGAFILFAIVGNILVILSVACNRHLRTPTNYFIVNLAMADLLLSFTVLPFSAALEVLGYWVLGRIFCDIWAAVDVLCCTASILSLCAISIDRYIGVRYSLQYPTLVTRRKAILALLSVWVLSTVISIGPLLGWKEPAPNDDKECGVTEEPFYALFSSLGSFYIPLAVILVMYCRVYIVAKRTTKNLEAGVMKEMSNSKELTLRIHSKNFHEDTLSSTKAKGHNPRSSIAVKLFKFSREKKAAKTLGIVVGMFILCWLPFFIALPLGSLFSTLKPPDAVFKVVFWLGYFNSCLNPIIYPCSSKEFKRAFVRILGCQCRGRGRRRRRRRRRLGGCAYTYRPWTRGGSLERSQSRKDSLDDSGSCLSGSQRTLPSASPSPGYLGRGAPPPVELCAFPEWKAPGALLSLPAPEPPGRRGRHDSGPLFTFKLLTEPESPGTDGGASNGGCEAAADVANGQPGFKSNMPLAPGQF

Homo sapiens [47] = species on record: Homo sapiens; assay: Inhibition of N-type calcium channel (unknown origin) at 10 uM

O=C1Cc2cc(S(=O)(=O)NNc3ccc(Br)cc3)ccc2N1
< 50%: inhibition [1] | inhibition at 10 µM [2] | inhibition (Homo sapiens [3]) | inhibition (Homo sapiens [5]) | inhibition [6] | inhibition [7] | inhibition [8] | inhibition (Homo sapiens [9]) | inhibition [11] | inhibition [12] | inhibition (Homo sapiens [14]) | inhibition [15] | inhibition [16] | inhibition [17] | inhibition [18] | inhibition [19] | inhibition [21] | inhibition (Homo sapiens [25]) | inhibition [26] | inhibition [27] | inhibition [28] | inhibition (Homo sapiens [30]) | inhibition (Homo sapiens [31]) | inhibition [32] | inhibition [33] | inhibition (Homo sapiens [34]) | inhibition [35] | inhibition (Homo sapiens [36]) | inhibition [37] | inhibition [40] | inhibition [41] | inhibition [42] | inhibition [43] | inhibition [45] | inhibition [46] | inhibition (Homo sapiens [47])
2430 ng·h/mL: AUC(0-inf) [13]
2.3 h: half-life [24] | half-life [29]
59%: bioavailability [20]
40%: inhibition in vivo at 100 mg/kg (CT26 [22])
31%: inhibition in vivo at 50 mg/kg (Mus musculus [38])
4 days: Time (CT26 [4])
0.8 h: Tmax [10]
6.4 days: Time (CT26 [23])
73%: inhibition in vivo at 400 mg/kg (CT26 [39])
58%: inhibition in vivo at 100 mg/kg (Mus musculus [44])
